Test: xn = mol fraction of the nth substance listed
Settings: 101 kPa, Liquid; for speed of sound: Single path-length method

COC(C)(C)C [2-methoxy-2-methylpropane] + CC(C)CC(C)(C)C
Settings | mass density [kg/m3] | speed of sound [m/s]
305.65 K, x1 = 0.049 | 683.001 | –
305.65 K, x1 = 0.091 | 684.244 | –
305.65 K, x1 = 0.197 | 687.643 | –
305.65 K, x1 = 0.296 | 691.083 | –
305.65 K, x1 = 0.394 | 694.818 | –
305.65 K, x1 = 0.507 | 699.54 | –
305.65 K, x1 = 0.603 | 703.873 | –
305.65 K, x1 = 0.7 | 708.82 | –
305.65 K, x1 = 0.79 | 713.83 | –
305.65 K, x1 = 0.898 | 720.394 | –
305.65 K, x1 = 0.951 | 723.998 | –
305.65 K, x1 = 1 | 726.444 | –
308.15 K, x1 = 0.049 | 680.9 | 1037.7
308.15 K, x1 = 0.091 | 682.124 | 1035
308.15 K, x1 = 0.197 | 685.47 | 1029
308.15 K, x1 = 0.296 | 688.864 | 1022.8
308.15 K, x1 = 0.394 | 692.544 | 1017.6
308.15 K, x1 = 0.507 | 697.225 | 1011
308.15 K, x1 = 0.603 | 701.481 | 1006.8
308.15 K, x1 = 0.7 | 706.365 | 1002
308.15 K, x1 = 0.79 | 711.31 | 998.04
308.15 K, x1 = 0.898 | 717.802 | 993.91
308.15 K, x1 = 0.951 | 721.377 | 992.13
308.15 K, x1 = 1 | 723.763 | 991.34
310.65 K, x1 = 0.049 | 678.79 | 1027.3
310.65 K, x1 = 0.091 | 679.994 | 1024.6
310.65 K, x1 = 0.197 | 683.293 | 1018.5
310.65 K, x1 = 0.296 | 686.637 | 1012.2
310.65 K, x1 = 0.394 | 690.27 | 1006.9
310.65 K, x1 = 0.507 | 694.875 | 1000.2
310.65 K, x1 = 0.603 | 699.077 | 995.9
310.65 K, x1 = 0.7 | 703.915 | 991.12
310.65 K, x1 = 0.79 | 708.777 | 986.9
310.65 K, x1 = 0.898 | 715.208 | 982.76
310.65 K, x1 = 0.951 | 718.741 | 981.15
310.65 K, x1 = 1 | 721.069 | 980
313.15 K, x1 = 0.049 | 676.674 | 1017
313.15 K, x1 = 0.091 | 677.857 | 1014.4
313.15 K, x1 = 0.197 | 681.108 | 1008
313.15 K, x1 = 0.296 | 684.416 | 1001.9
313.15 K, x1 = 0.394 | 687.984 | 996.15
313.15 K, x1 = 0.507 | 692.513 | 989.48
313.15 K, x1 = 0.603 | 696.659 | 984.99
313.15 K, x1 = 0.7 | 701.432 | 980.08
313.15 K, x1 = 0.79 | 706.232 | 975.76
313.15 K, x1 = 0.898 | 712.585 | 971.49
313.15 K, x1 = 0.951 | 716.075 | 969.68
313.15 K, x1 = 1 | 718.357 | 968.63
315.65 K, x1 = 0.049 | 674.551 | 1006.8
315.65 K, x1 = 0.091 | 675.716 | 1004
315.65 K, x1 = 0.197 | 678.915 | 997.54
315.65 K, x1 = 0.296 | 682.172 | 991.38
315.65 K, x1 = 0.394 | 685.682 | 985.48
315.65 K, x1 = 0.507 | 690.141 | 978.73
315.65 K, x1 = 0.603 | 694.229 | 974.09
315.65 K, x1 = 0.7 | 698.938 | 969.06
315.65 K, x1 = 0.79 | 703.665 | 964.56
315.65 K, x1 = 0.898 | 709.948 | 960.23
315.65 K, x1 = 0.951 | 713.392 | 958.31
315.65 K, x1 = 1 | 715.636 | 957.31
318.15 K, x1 = 0.049 | 672.418 | 996.53
318.15 K, x1 = 0.091 | 673.564 | 993.65
318.15 K, x1 = 0.197 | 676.709 | 987.14
318.15 K, x1 = 0.296 | 679.911 | 980.84
318.15 K, x1 = 0.394 | 683.366 | 974.83
318.15 K, x1 = 0.507 | 687.763 | 968.07
318.15 K, x1 = 0.603 | 691.788 | 963.2
318.15 K, x1 = 0.7 | 696.427 | 958.04
318.15 K, x1 = 0.79 | 701.097 | 953.55
318.15 K, x1 = 0.898 | 707.292 | 949.03
318.15 K, x1 = 0.951 | 710.693 | 947.02
318.15 K, x1 = 1 | 712.897 | 946.03
320.65 K, x1 = 0.049 | 670.282 | 986.33
320.65 K, x1 = 0.091 | 671.436 | 983.34
320.65 K, x1 = 0.197 | 674.493 | 976.73
320.65 K, x1 = 0.296 | 677.642 | 970.3
320.65 K, x1 = 0.394 | 681.043 | 964.2
320.65 K, x1 = 0.507 | 685.37 | 957.34
320.65 K, x1 = 0.603 | 689.334 | 952.36
320.65 K, x1 = 0.7 | 693.905 | 947.08
320.65 K, x1 = 0.79 | 698.504 | 942.46
320.65 K, x1 = 0.898 | 704.622 | 937.81
320.65 K, x1 = 0.951 | 707.978 | 935.72
320.65 K, x1 = 1 | 710.141 | 934.76
323.15 K, x1 = 0.049 | 668.138 | 976.18
323.15 K, x1 = 0.091 | 669.267 | 973.04
323.15 K, x1 = 0.197 | 672.267 | 966.34
323.15 K, x1 = 0.296 | 675.361 | 959.8
323.15 K, x1 = 0.394 | 678.707 | 953.63
323.15 K, x1 = 0.507 | 682.969 | 946.69
323.15 K, x1 = 0.603 | 686.867 | 941.57
323.15 K, x1 = 0.7 | 691.375 | 936.24
323.15 K, x1 = 0.79 | 695.909 | 931.51
323.15 K, x1 = 0.898 | 701.938 | 926.65
323.15 K, x1 = 0.951 | 705.25 | 924.5
323.15 K, x1 = 1 | 707.381 | 923.46

— the NIST ThermoML archive (doi:10.1007/s10765-007-0223-x)
